These are literature values, as cited in patent US20250073140A1, “ANTIPERSPIRANT COMPOSITIONS CONTAINING A SYNERGISTIC COMBINATION OF COPPER, ALUMINUM, TIN, ZINC, ZIRCONIUM, AND SILVER SALTS, AND, METHODS OF USING” (priority 2023, published 2025).

The conditions of this series: literature report.

Each structure is given as a SMILES string.

With `[Cl][Cu][Cl]` [copper chloride], the antiperspirant activity result was “demonstrated to have antiperspirant activity”.
